# Marks after values point to notes of the source that are not given here.
# Experiments:
# morphine-dependent rats = assay: Therapeutic effect on naloxone-induced withdrawal symptoms of morphine-dependent rats; type: in vivo, Sprague-Dawley (SD) rats; conditions: for Scores of induced withdrawal symptoms of rats: naloxone 5.0 mg/kg ip, 30 min
# Procedure: The administration continued for 3 days for each group of rats. Rats were free to drink and eat. Naloxone (5.0 mg/kg, ip) was given 45 min after administrations on d1 and d3 during the treatment to induce withdrawal symptoms, and withdrawal reaction in 30 min and body weights one hour before and after the inducement were observed.
# Times of shaking like a wet dog, stereotyped acts, erecting and jumping in 30 minutes were directly scored; symptoms such as ptosis, irritability, tooth tremor, chewing, pilus erection, abnormal posture and rapid respiration were scored every 5 minutes; symptoms such as diarrhea, lacrimation, salivation and rhinorrhea were scored every 30 minutes. The sum of all scores was the total score of the withdrawal reaction. See Appendix Table 2.
# mice [1] = assay: Acetic acid writhing test of mice; type: in vivo, Kunming mice; conditions: for Times of writhing: 0.6% acetic acid ip, in 20 min
# Procedure: Forty Kunming mice, male, were fasted for 12 h before the experiment but free to drink water. They were randomly divided into 4 groups: a blank control group, a low dose Compound group, a high dose Compound group, and a positive control group. […] The mice were administered (ig) at a low dose (0.4 g/kg) and a high dose (0.8 g/kg) of the compound, at a volume of 0.2 ml per 10 g body weight. The positive control group was administered (ip) methadone (20 mg/kg) and the blank control group was given (ig) the same volume of normal saline. Forty-five minutes after administration, each mouse was given (ip) 0.6% acetic acid, 0.2 ml for each. The mice were then observed for writhing reaction, with abdominal contraction and hind limb extension or hip elevation regarded as positive. Times of writhing in 20 min were recorded starting from 5 min after acetic acid injection. The analgesic effect was evaluated by taking completely inhibiting writhing reaction induced by acetic acid as an indicator.
# mice [2] = assay: Hot plate test of analgesic effect; type: in vivo, Kunming mice; conditions: for Pain threshold / Pain threshold before administration: hot plate 55° C.; for Pain threshold before administration: base line
# Procedure: Kunming mice, female, were selected. And a selection among them was conducted prior to the test. The hot plate was adjusted to 55° C.±0.5° C., the female mice were placed on the hot plate, and the duration (in seconds) required from placing the mice on the hot plate until the mice licked their feet as the normal pain threshold of the mice. All those who licked their feet within 5 s or after 30 s and jumped were abandoned. Forty qualified mice were selected and randomly divided into 4 groups: a blank control group, a low dose Compound group, a high dose Compound group, and a positive control group, 10 mice per group. The normal pain threshold of each mouse was measured repeatedly, and the average of two measurements was taken as the pre-administration pain threshold of the mouse. Each group was then administered (at doses and by delivery routes as above), 0.2 ml per 10 g body weight. The pain threshold of each group was measured 60 min and 120 min after administration. If a mouse remained unresponsive for more than 60 seconds on the hot plate, its pain threshold was calculated as 60 seconds.
# mice [3] = assay: Inducing the mice to sleep by a subthreshold dose of pentobarbital sodium; type: in vivo, Kunming mice; conditions: for Number of the mice showing disappearance of righting reflex: pentobarbital sodium 30 mg/kg ip, n = 20
# Procedure: Eighty Kunming mice, half males and half females, were fasted for 12 h but free to drink water. The mice were randomly divided into four groups: a blank control group, a low does Compound group (0.4 g/kg, ig), a high dose Compound group (0.8 g/kg, ig) and a positive drug control group (Estazolam, 2 mg/kg). each group of mice was administered according to the above doses (ig), and the blank control group was given the same volume of normal saline. Forty-five minutes later, each mouse was given (ip) 30 mg/kg pentobarbital sodium, and the number of mice falling asleep within 15 min was recorded by taking the absence of righting reflex more than 1 min as the indicator of falling asleep.
# mice [4] = assay: Sleeping duration induced by a threshold dose of pentobarbital sodium; type: in vivo, Kunming mice; conditions: for Sleeping duration: pentobarbital sodium 50 mg/kg ip
# Procedure: Forty Kunming mice, half males and half females, were fasted for 12 h but free to drink water. The mice were randomly divided into four groups: a blank control group, a low does Compound group (0.4 g/kg, ig), a high dose Compound group (0.8 g/kg, ig) and a positive drug control group (Estazolam, 2 mg/kg). each group of mice was administered according to the above doses (ig), and the blank control group was given the same volume of normal saline. Forty-five minutes later, each mouse was given (ip) 50 mg/kg pentobarbital sodium, and then the sleeping duration of each group of mice was recorded (taking the disappear of righting reflex after administration as the indicator of falling asleep, and the recovery of righting reflex as the end time of the sleep).
# mice [5] = assay: Oral acute toxicity test of mice (maximum dose method); type: in vivo, Kunming mice; conditions: for Weight after dosing / Weight change: 14 days observation; for Weight before dosing: test group
# Procedure: The test group was given 10% the compound, 0.3 ml/10 g per dose, and the control group was given the same volume of vegetable oil. Each group was administered (ig) twice a day at 8:00 and 18:00, respectively, and fasting was completed three hours after the administration (ig). All the mice received the same volume of 0.3 ml/10 g per dose, amounting to 6 g/kg BW over 24 hours. The mice were given free access to water and food after administration. The body weight, food intake, water intake, general physiological indicators, behaviors and activities, psychological status and survival status were recorded for 14 days in consecutive, 3 times a day, after several times of observation within the 24 hours that followed the administration.
# [6] = single administration 0.4, 0.8 g/kg, ig
# [7] = Female, 6 g/kg BW over 24 hours ig
# [8] = Male, 6 g/kg BW over 24 hours ig
smiles,measurement,setting,value
"CC1(C)O[C@H]2CC[C@@]3(C)[C@@H]([C@@H](O)[C@H](O)[C@@H]3[C@@](C)(O)CC[C@@H]3OC(C)(C)[C@H]4CC[C@]3(C)O4)[C@]2(C)CC[C@H]1O [the compound, limaxol A]",Body Weight Change (Body Weight before Inducement − Body Weight after Inducement),"morphine-dependent rats; d 1, high dose 0.6 g/kg ig",14.7 ± 4.08 g
same,Scores of induced withdrawal symptoms of rats,"morphine-dependent rats; d 1, high dose 0.6 g/kg ig",53.8 ± 16.23
same,Body Weight Change (Body Weight before Inducement − Body Weight after Inducement),"morphine-dependent rats; d 1, low dose 0.3 g/kg ig",11.8 ± 3.25 g
same,Scores of induced withdrawal symptoms of rats,"morphine-dependent rats; d 1, low dose 0.3 g/kg ig",74.9 ± 42.03
same,Body Weight Change (Body Weight before Inducement − Body Weight after Inducement),"morphine-dependent rats; d 3, high dose 0.6 g/kg ig",1.9 ± 2.13 g
same,Scores of induced withdrawal symptoms of rats,"morphine-dependent rats; d 3, high dose 0.6 g/kg ig",22.1 ± 10.90
same,Body Weight Change (Body Weight before Inducement − Body Weight after Inducement),"morphine-dependent rats; d 3, low dose 0.3 g/kg ig",4.5 ± 2.59 g
same,Scores of induced withdrawal symptoms of rats,"morphine-dependent rats; d 3, low dose 0.3 g/kg ig",25.5 ± 12.26
same,Effect on changes of the body weight of rats,"morphine-dependent rats; two doses (0.3, 0.6 g/kg) ig",no significant effect
same,Effect on withdrawal symptoms of morphine-dependent rats,"morphine-dependent rats; two doses (0.3, 0.6 g/kg) ig",partially control the withdrawal symptoms
same,Times of writhing,mice [1]; high dose 0.8 g/kg ig,39.6 ± 13.21
same,Times of writhing,mice [1]; low dose 0.4 g/kg ig,37.10 ± 15.69
same,"Analgesic effect, acetic acid writhing test",mice [1]; [6],no obvious analgesic effect
same,Pain threshold,"mice [2]; 60 min, high dose 0.8 g/kg ig",27.0 ± 11.32 s
same,Pain threshold,"mice [2]; 60 min, low dose 0.4 g/kg ig",25.4 ± 10.10 s
same,Pain threshold,"mice [2]; 120 min, high dose 0.8 g/kg ig",25.9 ± 12.52 s
same,Pain threshold,"mice [2]; 120 min, low dose 0.4 g/kg ig",29.3 ± 13.41 s
same,Pain threshold before administration,mice [2]; high dose group,24.3 ± 5.51 s
same,Pain threshold before administration,mice [2]; low dose group,23.7 ± 4.95 s
same,"Analgesic effect, hot plate test",mice [2]; [6],no obvious analgesic effect
same,"Effect on number of mice that fell asleep, sub-threshold pentobarbital sodium","mice [3]; 0.4, 0.8 g/kg, ig",increase the number of mice that fell asleep
same,Number of the mice showing disappearance of righting reflex,mice [3]; high dose 0.8 g/kg ig,8 per group
same,Number of the mice showing disappearance of righting reflex,mice [3]; low dose 0.4 g/kg ig,11 per group
same,Effect on sleeping duration induced by pentobarbital sodium,"mice [4]; 0.4, 0.8 g/kg, ig",significantly prolong the sleeping duration
same,Sleeping duration,mice [4]; high dose 0.8 g/kg ig,32.8 ± 9.56*^ΔΔ min
same,Sleeping duration,mice [4]; low dose 0.4 g/kg ig,39.5 ± 11.46**^Δ min
same,Toxic reaction,"mice [5]; 6 g/kg BW over 24 hours ig, 14 days of observation",no toxic reaction occurred
same,Weight after dosing,mice [5]; [7],24.99 ± 1.59 g
same,Weight change,mice [5]; [7],4.06 ± 2.34 g
same,Weight before dosing,mice [5]; Female,20.93 ± 1.61 g
same,Weight after dosing,mice [5]; [8],26.60 ± 0.87 g
same,Weight change,mice [5]; [8],6.13 ± 1.46 g
same,Weight before dosing,mice [5]; Male,20.73 ± 1.79 g
same,"Visual observation of heart, liver, spleen, lung, kidney","mice [5]; after putting to death, 14 days",no abnormality was found
same,Maximum dose as multiple of the daily dose per the same body weight for a human adult,mice [5]; human adult dose 0.02 g/kg,300 times
same,Maximum dose given the mice,"mice [5]; ig, twice within 24 hours, no death",6000 mg/kg
same,LD50,"mice [5]; mouse, in vivo, po",could not be detected
